In data set [1] the test system is Dopamine (3H-spiperone). In words: Receptor Binding Assay with 3H-spiperone (Dopamine Binding Assay), rat brain homogenate. As to conditions: for Dopamine Binding Assay % Decrease from Control: single concentration of 1 uM, 3H-spiperone, rat brain homogenate, 30 min. As to the method: The Receptor Binding Assay test for antipsychotic acitvity, was conducted as follows:
A rat brain homogenate was prepared (1) by homogenizing a whole rat brain minus the cerebellum in 10 ml of 0.05M THAM-HC1, pH 7.4, using a Polytron at a setting of 7 for 30 sec. and centrifuging at 15,000xg for 10 min. The supernatant was discarded, the pellet resuspended in 10 ml of buffer using the Polytron for 10 sec., and the centrifugation repeated. The pellet was resuspended and diluted to 100 times the original tissue weight with buffer. Then 100 ml of the homogenate was diluted to 400 ml with buffer.
The test drug was weighed out in a scintillation vial in a 1-5 mg ammount. They were dissolved by adding 0.5 ml of N-N-dimethylformamide of (DMF) and then 0.05 ml of 1M acetic acid, and vortexed to solubilize the drug. Then 10 ml of deionized and filtered water was added to the required volume. All compounds were tested at a single concentration of 1 uM.
Samples were prepared for incubation using an ^3H-spiperone (antipsychotic).
Incubation was conducted at 30°C for 30 min. on a shaking water bath. Every 30 sec., 24 tubes were filled with 1 ml of homogenate and put into the bath (this is done every 3 min. until all tubes are in the bath). Upon completion of the incubation procedure, the samples are filtered and rinsed.
The punched filters are dropped into vials, which are in turn filled with ACS liquid scintillation fluid and capped and counted in a liquid scintillation counter. Counting data is recorded and analyzed.
Results are expressed as percent decrease from control.

Data set [2] relates to Locomotor activity. Nature of the data set: Antagonism of apomorphine locomotor activity in reserpinized mouse. The class given is in vivo. The source says:
(§1) Table 3. […] A. Behavioral effects in the rat. B. Behavioral effects in the monkey. C. Doses required to antagonize the indicated behavioral effects of amphetamine. D. Doses required to antagonize the indicated behavioral effects of apomorphine.

The subject of data set [3] is dopamine metabolites HVA, DOPAC, and 3MT. In words: Dopamine metabolites in rat brain. The class given is in vivo. As to conditions: percentage of control; 3 mg/kg of chlorpromazine, 30 mg/kg clozapine or U-64,273A; Sprague-Dawley rat.
Data set [4] deals with plasma prolactin. Nature of the data set: Plasma prolactin. Particulars: 3 mg/kg of chlorpromazine, 30 mg/kg clozapine or U-64,273A; Sprague-Dawley rat. The class given is in vivo.
For data set [5], the system named is muscarinic. In words: Muscarinic ligand binding, rat brain homogenates. Particulars: 1μM, - indicates ligand was displaced.
In data set [6] the test system is alpha-1. Nature of the data set: Alpha-1 ligand binding, rat brain homogenates. Particulars: 1μM, i.a. = inactive.
Data set [7] deals with alpha-2. In words: Alpha-2 ligand binding, rat brain homogenates. Particulars: 1μM, - indicates ligand was displaced.
The subject of data set [8] is LSD. Nature of the data set: LSD ligand binding, rat brain homogenates. As to conditions: 1μM, - indicates ligand was displaced.
Data set [9] has as its system dopamine neurons. Nature of the data set: Reversal of amphetamine depression of dopamine neuron firing rates. The class given is in vivo, rats. Particulars: for Emax / ED50: Rattus norvegicus, Neuron, iv; for Emax: read-out: MAXIMUM EFFECT (per cent reversal). As to the method: Table 2. Dopamine neuron firing rates were recorded according to published procedures and drugs were injected intravenously in chloral hydrate anesthetized rats. A. Ability of drugs to reverse the depression in firing rates of dopamine neurons by 1 to 2 mg/kg amphetamine. The maximum effect is the maximum amount of the amphetamine effect that was reversed, even when doses were increased beyond dose causing maximum effect. […] B. Depression of dopamine neurons by full agonist apomorphine and partial agonists TDHL, (-)PPP and U-64,273A. Maximum effect is maximum depression that could be realized even after increasing doses beyong the dose causing maximum effect. For both A and B, the ED50 is the dose causing 50% of the respective antagonistic (A) or agonist (B) effect.

Data set [10] concerns Catalepsy. In words: Catalepsy. Particulars: rat.
Source text: as §1

Data set [11] concerns body temperature. Nature of the data set: Hypothermia Test (effect on body temperature). In kind it is in vivo, CF-1 male mice. Particulars: Mus musculus, ip, 0.75 h, read-out: Hypothermia ED50. As to the method:
(§2) The Effect on Body Temperature (Hypothermia) Test and the Antagonism of Apomorphone-Induced Case Climbing (ACC), (Apomorphine Gnawing Test) are described on page 1398 of the publication, Journal of Medicinal Chemistry, Vol. 22, No. 11, pp. 1390-1398, in an article entitled "6-Aryl-4H-s-triazolo[4,3-a][1,4]benzodiazepines....Action" by J. B. Hester, Jr., et al.
For the tests here, the Hypothermia Test procedure was run as follows:
A group of four CF-1 male mice (18-22 g each) was injected intraperitoneally with the test compound prepared in 0.25 percent w/v methylcellulose in water solution. After 45 min, abdominal temperature of each mouse was measured using a thermister probe. A control group of four mice was treated with vehicle only and the temperature of the control group was taken in a similar manner. A compound was considered to have a significant effect on body temperature if the mean temperature in the test compound treated group deviated more than 3.5°C from the mean temperature of the parallel control group. Stimulants tend to elevate temperatures; depressants tend to lower body temperature.

The test system of data set [12] is Apomorphone-Induced Case Climbing. In words: Apomorphine antagonism (Apomorphine gnawing test; apomorphine-induced cage climbing). The class given is in vivo, Mouse. As to conditions: Mus musculus, read-out: Apomor. Antag. ED50.
Source text: as §2, §1

Data set [13] deals with body temperature. In words: Antagonism of drug-induced hypothermia. Further details: species or system mice. Particulars: mouse, in vivo.
Data set [14] concerns dopamine neurons. In words: Depression of dopamine neuron firing rates by the drug alone. Particulars: Rattus norvegicus, iv, intravenously. In kind it is in vivo, rats. As to the method: Table 2. Dopamine neuron firing rates were recorded according to published procedures and drugs were injected intravenously in chloral hydrate anesthetized rats. A. Ability of drugs to reverse the depression in firing rates of dopamine neurons by 1 to 2 mg/kg amphetamine. The maximum effect is the maximum amount of the amphetamine effect that was reversed, even when doses were increased beyond dose causing maximum effect. An effect greater than 100% indicates excitation of the neuron beyond its' control rate whereas an effect less than 100% indicates partial agonist effects. B. Depression of dopamine neurons by full agonist apomorphine and partial agonists TDHL, (-)PPP and U-64,273A. Maximum effect is maximum depression that could be realized even after increasing doses beyong the dose causing maximum effect. For both A and B, the ED50 is the dose causing 50% of the respective antagonistic (A) or agonist (B) effect.

Data set [15] concerns 6-OH DA Turning. In words: Antagonism of amphetamine: 6-OH DA turning. The class given is in vivo. As to conditions: i.a. = inactive.
Source text: as §1

Bounds are passed on as bounds.

Broadly, the ED50 is the dose that gives a 50% effect, or the effect in half of the subjects.

For `CN(C)CCCN1c2ccccc2Sc2ccc(Cl)cc21` [CHLORPROMAZINE, chlorpromazine, reference compound], the “spiperone, percentage of ligand displaced” value in data set [1] (1μM, rat brain homogenates, - indicates ligand was displaced) was -81.6%. In addition, the “Locomotor activity, reserpinized mouse, 3 mg/kg (antag. of apomorphine)” value in data set [2] is reported as 85% (CPZ). Besides, in data set [3], the 3MT turned out to be 365%, the DOPAC was determined as 375% and the HVA is 225%. Besides, in [4], the “Plasma Prolactin” value is listed as 1057%. In addition, the “muscarinic, percentage of ligand displaced” value in [5] was -96.4%. For the same compound, the “alpha-1, percentage of ligand displaced” value in data set [6] is given as -98.6%. Also, the “alpha-2, percentage of ligand displaced” value in data set [7] is given as -83.4%. For the same compound, the “LSD, percentage of ligand displaced” value in data set [8] is listed as -76.8%.
Take `CN1CCN(C2=Nc3cc(Cl)ccc3Nc3ccccc32)CC1` [Clozapine, clozapine]: in [9] (A. antagonize amphetamine depressions, intravenously, chloral hydrate anesthetized rats, 1 to 2 mg/kg amphetamine, >100% = excitation beyond control rate), the Emax is 105%. Further, in [9] (dose causing 50% of the antagonistic effect, intravenously, anesthetized rats, read-out: ED50), the 50% effective dose (ED50) amounted to 2 mg/kg. Also, the “Catalepsy, active dose” value in [10] (i.a. = inactive) was “i.a”. For the same compound, in data set [2], the “Locomotor activity, reserpinized mouse, 3 mg/kg (antag. of apomorphine)” value was 52%. In [3], the 3MT is 104%, the DOPAC is 110% and the HVA is 118%. The “Plasma Prolactin” value in [4] is given as 42%.
`CNC1Cc2cccc3c(C)ccc(c23)C1` (centres unmarked) [Example 39, part B, 2,3-dihydro-N,6-dimethyl-1H-phenalen-2-amine]: the ED50 in data set [11] is 13 mg/kg; in [12] it was 35 mg/kg. For the same compound, the “Dopamine Binding Assay % Decrease from Control” value in [1] was -55.37%.
With `COC(=O)[C@@H]1[C@H]2C[C@H]3c4[nH]c5ccccc5c4CCN3C[C@@H]2CC[C@@H]1O` [yohimbine], in data set [13], the “block of hypothermia induced by 2-(N,N-di-n-propylamino)-2,3-dihydro-lH-phenalen-5-ol” value is “did not alter” and the “block of hypothermia induced by clonidine” value was “did block”.
Consider `O=C(CCCN1CCC(O)(c2ccc(Cl)cc2)CC1)c1ccc(F)cc1` [Haloperidol, haloperidol], for which, in [9], the ED50 is 0.008 mg/kg and the Emax was determined as 164%. The “increase of firing rates to a level greater than controls” value in data set [9] (after reversal of amphetamine depression of DA neuronal firing) is listed as 64%. Besides, the “Catalepsy, active dose” value in data set [10] (in vivo) was 1 mg/kg. For the same compound, the “block of hypothermia induced by 2-(N,N-di-n-propylamino)-2,3-dihydro-lH-phenalen-5-ol” value in data set [13] is given as “significantly blocks”.
`CCCN(CCC)C1(C)Cc2cccc3cc(O)cc(c23)C1` (centres unmarked) [Example 41, 5-Hydroxy-2-methyl-2,3-dihydro-N,N-di-n-propyl-lH-phenalene-2-amine]: the ED50 in data set [11] and in data set [12] was > 50 mg/kg each time. Further, the “Dopamine Binding Assay % Decrease from Control” value in data set [1] is recorded as -55.18%.
For `Cc1ccc2c3c(cccc13)CC(N)C2` (centres unmarked) [Example 38, part C, 6-methyl-2,3-dihydro-lH-phenalen-2-amine], the values for the 50% effective dose (ED50) in data set [11] and in data set [12] were > 50 mg/kg and 35 mg/kg, respectively. In addition, in data set [1], the “Dopamine Binding Assay % Decrease from Control” value is reported as -30.62%.
`CN1CCc2cccc3c2[C@H]1Cc1ccc(O)c(O)c1-3` [Apomorphine, apomorphine]: in data set [14] (Neuron, dose causing 50% of the agonist effect, anesthetized rats, read-out: ED50), the ED50 was 0.01 mg/kg. In addition, in data set [14] (B. depress DA neuron firing rates, chloral hydrate anesthetized rats, read-out: MAXIMUM EFFECT (per cent decrease)), the Emax amounted to 100%. The “Catalepsy, active dose” value in data set [10] (in vivo) is “i.a”. Moreover, the “6-OH DA Turning, rat, dose required to antagonize amphetamine” value in data set [15] is “i.a”.
Take `CCCN(CCC)C1Cc2cccc3c(C)ccc(c23)C1` (centres unmarked) [Example 38, title compound, 2,3-Dihydro-6-methyl-N,N-dipropyl-lH-phenalene-2-amine]: the results for the 50% effective dose (ED50) in data set [11] and in [12] were 18 mg/kg and > 50 mg/kg, respectively. For the same compound, the “Dopamine Binding Assay % Decrease from Control” value in data set [1] was -82.08%.

The values above are taken from patent publication EP0234113A1, “2,3-Dihydro-1H-phenalene-2-amino compounds as anti-psychotic drugs” (THE UPJOHN COMPANY, priority 1985, dated 1987).
